This is an account of results in patent US12421207B2 (CMG Pharmaceutical Co., Ltd., priority 2022, dated 2025).

Each structure is given as a SMILES string.

The test system of experiment [1] is PC9/ER cells. Kind of experiment: Cell viability assay (CellTiter-Glo 2.0), erlotinib-resistant PC9/ER cells. In kind it is cell-based. The following applies: Homo sapiens, PC-9/ER; Table 4; 72 h drug treatment, combinations of EGFR TKIs and inhibitor of Formula (I); read-out: Relative cell viability; IC50 PC9ER. From the text: (§1) To explore c-MET and AXL mechanisms of EGFR TKI resistance, resistant cells of the EGFR TKI hypersensitive EGFR exon 19 mutant NSCLC cell line, HCC827 and PC9 were generated by exposing these cells to increasing concentrations of EGFR TKI for over 3 months.
(§2) Gefitinib-resistant cells were referred to as HCC827/GR. […] Osimertinib-resistant cells were referred to as HCC827/OR.

Experiment [2] deals with HCC827/GR cells. Kind of experiment: Cell viability assay (CellTiter-Glo 2.0), gefitinib-resistant HCC827/GR cells. Type of experiment: cell-based, human. To be noted: Homo sapiens, HCC827; Table 4; 72 h drug treatment, combinations of EGFR TKIs and inhibitor of Formula (I); read-out: Relative cell viability; IC50 HCC827GR.
Text: as §1
The human cell line HCC827 was purchased from the American Type Culture Collection (Manassas, VA), and the PC9 cell line was obtained from RIKEN Cell Bank (Ibaraki, Japan). […] Gefitinib-resistant cells were referred to as HCC827/GR. […] Osimertinib-resistant cells were referred to as HCC827/OR.
(§3) Cell viability assays were carried out by plating 1,000 cells per well of HCC827 or PC9 resistant cells, respectively, into white transparent-bottom 384-well plates. The cells were treated with each TKI across a 10-dose range from 1 nM to 10,000 nM. After 72 h of drug treatment, cell viability was measured using the CellTiter-Glo 2.0 assay (Promega, Madison, WI).
as §3

The subject of experiment [3] is HCC827/ER cells. Briefly: Cell viability assay (CellTiter-Glo 2.0), erlotinib-resistant HCC827/ER cells. Type of experiment: cell-based, human. The following applies: Homo sapiens, HCC827ER, Table 4, 72 h drug treatment, combinations of EGFR TKIs and inhibitor of Formula (I), read-out: Relative cell viability.
Text: as §1, §2
(In general: In ATP-based viability assays light output follows the ATP content of the culture.)

The test system of experiment [4] is HCC827/OR cells. Kind of experiment: Cell viability assay (CellTiter-Glo 2.0), osimertinib-resistant HCC827/OR cells. Type of experiment: cell-based, human. To be noted: Homo sapiens, HCC827; Table 4; 72 h drug treatment, combinations of EGFR TKIs and inhibitor of Formula (I); read-out: Relative cell viability; IC50 HCC827OR.
Text: as §1, §2

Take `CN1CCN(C(C)(C)C#Cc2c(Oc3ccc(NC(=O)c4cn(CC(=O)N(C)C)c(=O)n(-c5ccc(F)cc5)c4=O)cc3F)ccnc2N)CC1` [Example 36, N-(4-((2-amino-3-(3-methyl-3-(4-methylpiperazin-1-yl)but-1-yn-1-yl)pyridin-4-yl)oxy)-3-fluorophenyl)-1-(2-(dimethylamino)-2-oxoethyl)-3-(4-fluorophenyl)-2,4-dioxo-1,2,3,4-tetrahydropyrimidine-5-carboxamide]: the IC50 in experiment [1], in experiment [2], in experiment [3] and in experiment [4] was under 10000 nM throughout.
With `CN1CCC(CC#Cc2c(Oc3ccc(NC(=O)c4cn(CC(=O)N(C)C)c(=O)n(-c5ccc(F)cc5)c4=O)cc3F)ccnc2N)CC1` [Example 37, N-(4-((2-amino-3-(3-(1-methylpiperidin-4-yl)prop-1-yn-1-yl)pyridin-4-yl)oxy)-3-fluorophenyl)-1-(2-(dimethylamino)-2-oxoethyl)-3-(4-fluorophenyl)-2,4-dioxo-1,2,3,4-tetrahydropyrimidine-5-carboxamide], the IC50 in experiment [1], in experiment [2], in experiment [3] and in experiment [4] was under 10000 nM throughout.
For the compound `CN(C)C(=O)Cn1cc(C(=O)Nc2ccc(Oc3ccnc(N)c3C#CCC3CCNCC3)c(F)c2)c(=O)n(-c2ccc(F)cc2)c1=O` [Example 38, N-(4-((2-amino-3-(3-(piperidin-4-yl)prop-1-yn-1-yl)pyridin-4-yl)oxy)-3-fluorophenyl)-1-(2-(dimethylamino)-2-oxoethyl)-3-(4-fluorophenyl)-2,4-dioxo-1,2,3,4-tetrahydropyrimidine-5-carboxamide], the IC50 in experiment [1], in experiment [2], in experiment [3] and in experiment [4] was under 10000 nM throughout.
Take `Cc1nc(Cn2cc(C(=O)Nc3ccc(Oc4ccnc(N)c4C#CC(C)(C)N4CCOCC4)c(F)c3)c(=O)n(-c3ccc(F)cc3)c2=O)cs1` [Example 39, N-(4-((2-amino-3-(3-methyl-3-morpholinobut-1-yn-1-yl)pyridin-4-yl)oxy)-3-fluorophenyl)-3-(4-fluorophenyl)-1-((2-methylthiazol-4-yl)methyl)-2,4-dioxo-1,2,3,4-tetrahydropyrimidine-5-carboxamide]: the IC50 in experiment [1], in experiment [2], in experiment [3] and in experiment [4] was under 100 nM in each case.
In the case of `Cc1nc(Cn2cc(C(=O)Nc3ccc(Oc4ccnc(N)c4C#CCN4CCOCC4)c(F)c3)c(=O)n(-c3ccc(F)cc3)c2=O)cs1` [Example 40, N-(4-((2-amino-3-(3-morpholinoprop-1-yn-1-yl)pyridin-4-yl)oxy)-3-fluorophenyl)-3-(4-fluorophenyl)-1-((2-methylthiazol-4-yl)methyl)-2,4-dioxo-1,2,3,4-tetrahydropyrimidine-5-carboxamide], the IC50 in experiment [1] is under 100 nM; in experiment [2], under 100 nM; in experiment [3], under 100 nM; in experiment [4], under 1000 nM.
Consider `Cc1nc(Cn2cc(C(=O)Nc3ccc(Oc4ccnc(N)c4C#CC(C)(C)N4CCNCC4)c(F)c3)c(=O)n(-c3ccc(F)cc3)c2=O)cs1` [Example 41, N-(4-((2-amino-3-(3-methyl-3-(piperazin-1-yl)but-1-yn-1-yl)pyridin-4-yl)oxy)-3-fluorophenyl)-3-(4-fluorophenyl)-1-((2-methylthiazol-4-yl)methyl)-2,4-dioxo-1,2,3,4-tetrahydropyrimidine-5-carboxamide], for which the IC50 in experiment [1], in experiment [2], in experiment [3] and in experiment [4] was under 1000 nM each time.
On to `Cc1nc(Cn2cc(C(=O)Nc3ccc(Oc4ccnc(N)c4C#CC(C)(C)N4CCN(C)CC4)c(F)c3)c(=O)n(-c3ccc(F)cc3)c2=O)cs1` [Example 42, N-(4-((2-amino-3-(3-methyl-3-(4-methylpiperazin-1-yl)but-1-yn-1-yl)pyridin-4-yl)oxy)-3-fluorophenyl)-3-(4-fluorophenyl)-1-((2-methylthiazol-4-yl)methyl)-2,4-dioxo-1,2,3,4-tetrahydropyrimidine-5-carboxamide], for which the IC50 is under 1000 nM in experiment [1], under 100 nM in experiment [2], under 100 nM in experiment [3] and under 1000 nM in experiment [4].
For the compound `Cc1nc(Cn2cc(C(=O)Nc3ccc(Oc4ccnc(N)c4C#CCC4CCN(C)CC4)c(F)c3)c(=O)n(-c3ccc(F)cc3)c2=O)cs1` [Example 43, N-(4-((2-amino-3-(3-(1-methylpiperidin-4-yl)prop-1-yn-1-yl)pyridin-4-yl)oxy)-3-fluorophenyl)-3-(4-fluorophenyl)-1-((2-methylthiazol-4-yl)methyl)-2,4-dioxo-1,2,3,4-tetrahydropyrimidine-5-carboxamide], the IC50 in experiment [1] was under 100 nM; in experiment [2], under 100 nM; in experiment [3], under 100 nM; in experiment [4] it was under 1000 nM.
Take `Cc1nc(Cn2cc(C(=O)Nc3ccc(Oc4ccnc(N)c4C#CCC4CCNCC4)c(F)c3)c(=O)n(-c3ccc(F)cc3)c2=O)cs1` [Example 44, N-(4-((2-amino-3-(3-(piperidin-4-yl)prop-1-yn-1-yl)pyridin-4-yl)oxy)-3-fluorophenyl)-3-(4-fluorophenyl)-1-((2-methylthiazol-4-yl)methyl)-2,4-dioxo-1,2,3,4-tetrahydropyrimidine-5-carboxamide]: the IC50 is under 1000 nM in experiment [1], under 100 nM in experiment [2], under 1000 nM in experiment [3] and under 1000 nM in experiment [4].
On to `CN1CCC(CC#Cc2c(Oc3ccc(NC(=O)c4nn(C)c(=O)n(-c5ccc(F)cc5)c4=O)cc3F)ccnc2N)CC1` [Example 45, N-(4-((2-amino-3-(3-(1-methylpiperidin-4-yl)prop-1-yn-1-yl)pyridin-4-yl)oxy)-3-fluorophenyl)-4-(4-fluorophenyl)-2-methyl-3,5-dioxo-2,3,4,5-tetrahydro-1,2,4-triazine-6-carboxamide], for which the IC50 is under 1000 nM in experiment [1], under 1000 nM in experiment [2], under 1000 nM in experiment [3] and under 10000 nM in experiment [4].
For the compound `Cn1nc(C(=O)Nc2ccc(Oc3ccnc(N)c3C#CCC3CCNCC3)c(F)c2)c(=O)n(-c2ccc(F)cc2)c1=O` [Example 46, N-(4-((2-amino-3-(3-(piperidin-4-yl)prop-1-yn-1-yl)pyridin-4-yl)oxy)-3-fluorophenyl)-4-(4-fluorophenyl)-2-methyl-3,5-dioxo-2,3,4,5-tetrahydro-1,2,4-triazine-6-carboxamide], the IC50 in experiment [1] is under 10000 nM; in experiment [2], under 1000 nM; in experiment [3], under 10000 nM; in experiment [4], under 10000 nM.
As to `Cn1nc(C(=O)Nc2ccc(Oc3ccnc(N)c3C#CC(C)(C)N3CCNCC3)c(F)c2)c(=O)n(-c2ccc(F)cc2)c1=O` [Example 47, N-(4-(2-amino-3-(3-methyl-3-(piperazin-1-yl)but-1-ynyl)pyridin-4-yloxy)-3-fluorophenyl)-4-(4-fluorophenyl)-2-methyl-3,5-dioxo-2,3,4,5-tetrahydro-1,2,4-triazine-6-carboxamide], the IC50 in experiment [1], in experiment [2], in experiment [3] and in experiment [4] was under 10000 nM in each case.
Take `Cn1nc(C(=O)Nc2ccc(Oc3ccnc(N)c3C#CC(C)(C)N3CCOCC3)c(F)c2)c(=O)n(-c2ccc(F)cc2)c1=O` [Example 48, N-(4-(2-amino-3-(3-methyl-3-morpholinobut-1-ynyl)pyridin-4-yloxy)-3-fluorophenyl)-4-(4-fluorophenyl)-2-methyl-3,5-dioxo-2,3,4,5-tetrahydro-1,2,4-triazine-6-carboxamide]: the IC50 in experiment [1], in experiment [2], in experiment [3] and in experiment [4] was under 1000 nM in each case.
On to `Cn1nc(C(=O)Nc2ccc(Oc3ccnc(N)c3C#CCN3CCOCC3)c(F)c2)c(=O)n(-c2ccc(F)cc2)c1=O` [Example 49, N-(4-(2-amino-3-(3-morpholinoprop-1-ynyl)pyridin-4-yloxy)-3-fluorophenyl)-4-(4-fluorophenyl)-2-methyl-3,5-dioxo-2,3,4,5-tetrahydro-1,2,4-triazine-6-carboxamide], for which the IC50 in experiment [1] is under 1000 nM; in experiment [2] it was under 1000 nM; in experiment [3], under 10000 nM; in experiment [4], under 10000 nM.
Turning to `CC(C)(C#Cc1c(Oc2ccc(NC(=O)c3c[nH]c(=O)n(-c4ccc(F)cc4)c3=O)cc2F)ccnc1N)N1CCOCC1` [Example 50, N-(4-(2-amino-3-(3-methyl-3-morpholinobut-1-ynyl)pyridin-4-yloxy)-3-fluorophenyl)-3-(4-fluorophenyl)-2,4-dioxo-1,2,3,4-tetrahydropyrimidine-5-carboxamide], the IC50 in experiment [1] is under 100 nM; in experiment [2], under 1000 nM; in experiment [3], under 100 nM; in experiment [4], under 100 nM.
